Patent publication US7915405B2, “2,4-disubstituted-5-aminocarbonyl-1,3-thiazole derivatives for therapeutic agent of antiinflammatory disease, method thereof for preparation, therapeutic agent for antiinflammatory disease induced by SPC activity containing the same” (Korea Research Institute of Chemical Technology, priority 2008, dated 2011)

Tests used:
[1] = system: human umbilical vein endothelial cells (HUVECs); experiment: Inhibitory effect on chemotactic cell migration induced by SPC (Boyden chamber analysis); format: cell-based; details: HUVEC
Source text: Recently, it was reported that SPC plays an important role in chemotactic cell migration, similar to vascular endothelial cell growth (VEGF) [Boguslawski et al, Biochem Biophys Res Commun., 2000, 272, 603-609]. The phenomenon in which cells migrate in a living body by special cytokines or kemokines is a key step in a process, such as migration of immune cells to sites of inflammation, or angiogenesis caused by endothelial cells. Accordingly, the effect of the compounds prepared in the above Examples on chemotactic cell migration induced by SPC was tested by Boyden chamber analysis.
First, a 25×80 mm polycarbonate membrane (Neuro Probe, Inc.) having 8 μm pores was overnight coated by immersion in a solution containing 0.01% gelatin and 0.1% acetic acid solution and was naturally dried at room temperature.
Meanwhile, human umbilical vein endothelial cells (HUVECs) cultured in complete EBM-2 medium containing 2% fetal bovine serum were incubated in EBM-2 medium (Cambrex, Catalog No. CC-3121) containing no fetal bovine serum for 4 hours to achieve serum starvation, and then the cells were harvested with trypsin/EDTA solution. The HUVEC cells were suspended in EBM-2 medium containing 0.1% fetal bovine serum. Then, the cells were dispensed in a silicon-coated Eppendorf tube, the compound of Example 1-31 as a test drug was added to the cells in amounts of 0.1, 1 and 10 μg/ml, and the cells were treated with the compound at 37° C. for 30 minutes. 27 μL of EBM-2 medium containing 10 μM SPC or EBM-2 medium containing no SPC was dispensed in each well of the lower chamber of the Boyden chamber, and a gelatin-coated membrane was placed in the lower chamber, such that the glossy surface of the membrane was faced downward. A gasket was placed on the membrane, and then the upper chamber was assembled. 5×10^4 (56 μl) HUVEC cells treated with the drug were dispensed in each well of the upper chamber and incubated in a CO2 incubator at 37° C. for 8 hours. The membrane was separated, stained with Diff-Quik dye (Sysmex Corporation), washed with deionized water, and then attached to a slide glass, such that the glossy surface was faced downward. The cells attached onto the membrane were carefully wiped with kimwipes or cotton swabs, and then each well was photographed in five fields (200× magnification), and the cells were counted. Inhibition of chemotactic cell migration was calculated according to the following equation 2, and the results are shown in Table 3 below. Inhibition %=(group treated with SPC alone−group treated with test drug)/(group treated with SPC alone−group not treated with SPC)×100 [Equation 2]

NIH 3T3 cells = experiment: Control of cellular division and proliferation induced by SPC ([3H]-thimidine incorporation); format: cell-based
Method: Treatment of cells with sphingosylphosphorylcholine (SPC) can induce excessive cellular division and proliferation, thus causing pathological skin conditions [Desai, Biochem. Biophys. […] Accordingly, the compounds prepared in the above Examples were tested for an effect on cellular division and proliferation induced by SPC.
First, 1×10^5 (usually 1×10^4˜10^5) NIH 3T3 cells (American Type Culture Collection, Manassas, Va., USA) were dispensed and cultured on a culture plate, and then cultured in RPMI medium containing no fetal bovine serum for 24 hours to achieve serum starvation. The cells were treated with the compounds prepared in the above Examples, and FTY720, a sphingosine-1-phosphate (S1P) agonist, at concentrations of 0.001 μM, 0.01 μM, 0.1 μM and 1 μM, and were incubated for 30 minutes. Then, SPC (Biomol, Plymouth Meeting, Pa., USA) was added thereto at a concentration of 7 μM, and the cells were incubated at 37° C. for 24 hours. […] Proliferation %=(group treated with test drug−group not treated with SPC)/(group treated with SPC alone−group not treated with SPC)×100 [Equation 1]

[2] = system: TPA-induced inflammation model; experiment: Control of inflammatory reaction in mouse TPA-induced inflammation model (ear weight and MPO activity); format: in vivo; details: ICR mice
Method: In order to examine an inhibitory effect on inflammatory reactions, the following test was carried out using tetradecanoyl phorbol acetate (hereinafter referred to as “TPA”)-induced inflammation model.
The TPA-induced inflammation model was a test method which has been widely used to test inflammatory reaction mechanisms and the effect of inhibitory substances [De Young L M et al., Agents and Actions, 1989, 26, 335-341]. When TPA which is a substance causing an inflammatory reaction is applied to the ear of a test subject, erythema and edema occur. Such inflammatory reactions are measurable through the increase in the activity of myeloperoxidase (MPO) which is essential for bacterial invasion into white blood cells.
Forty 6-week-old ICR mice were prepared, and 20 μl of a TPA solution (Sigma Aldrich Korea) obtained by dissolving TPA in acetone at a concentration of 125 μg/ml was applied to the left ear of each animal. At 1 hour after the application of TPA, 20 μl of each of acetone, the compounds of Examples dissolved in acetone at a concentration of 0.3%, and hydrocortisone (Sigma Aldrich Korea) dissolved in acetone at a concentration of 0.3% was applied to the TPA-applied site, and at 6 hours after the application of TPA, it was applied again to the same site in the same amount (20 μl). At 24 hours after the application of TPA, the mice were sacrificed by cervical dislocation, and the left ear was collected in a given width and measured for weight and MPO activity. Inhibition % of inflammatory reactions was calculated according to the following equation 3, and the results are shown in Table 4 below. Inhibition %=(group treated with TPA alone−group treated with test drug)/(group treated with TPA alone−group not treated with TPA)×100 [Equation 3]

For `COc1ccccc1N1CCN(c2nc(NC(=O)C(C)(C)C)c(C(=O)N3CCCCC3)s2)CC1` [Example 1-31, N-{2-[4-(2-methoxyphenyl)-piperazin-1-yl]-5-(piperidine-1-carbonyl)thiazol-4-yl}pivalamide], the “inhibition of chemotactic cell migration caused by SPC (in words)” value ([1]; Boyden chamber) was “strongly inhibited”, the inhibition at 0.1 µg/mL ([1]; Homo sapiens, 0.1 μg/ml, 10 μM SPC, 8 hours) was 44% and the inhibition at 1 µg/mL ([1]; Homo sapiens, 1 μg/ml, 10 μM SPC, 8 hours) was 58%. For the same compound, the inhibition at 10 µg/mL ([1]; Homo sapiens, 10 μg/ml, 10 μM SPC, 8 hours) was 69%, the IC50 (NIH 3T3 cells; Mus musculus, NIH3T3, serum starved, compound 0.001-1 μM 30 minutes, then SPC 7 μM, 24 hours, read-out: antagonistic effect on SPC IC50) was 5.42 nM and the “inhibition of cellular division and proliferation induced by SPC (in words)” value (NIH 3T3 cells; SPC 7 μM) was “dose-dependently inhibited”. The “Inhibition (%) of inflammatory reaction (ear edema, ear weight)” value ([2]; 0.3% in acetone, 20 μl on the ear at 1 hour and 6 hours after TPA, measured at 24 hours) was 84%, the “inhibition of TPA-induced inflammatory reactions, ear edema and MPO activity (in words)” value ([2]; 0.3% topical, compared with hydrocortisone) was “significantly inhibited” and the “Inhibition (%) (MPO inhibition)” value ([2]; value in brackets, 0.3% in acetone, 20 μl on the ear at 1 hour and 6 hours after TPA, MPO activity of ear at 24 hours) was 78%.
